Drawing on patent publication US20220324835A1 (Nurix Therapeutics, Inc., priority 2018, published 2022), this text covers fold induction and IC50 for eleven compounds.

Structures are written as SMILES.

Assay [1] has as its system T-cell. Nature of the assay: IL-2 secretion from T-cells co-stimulated with anti-CD3 and anti-CD28 antibody (Biological Example 2). Format: cell-based, human. To be noted: Homo sapiens, T-cell. An outline of the steps:
(§1)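 No assay protocol given; T-cells stimulated with anti-CD3 alone or anti-CD3 plus anti-CD28, with or without Cbl-b inhibitor. Activation read as IL-2 secretion or CD25 surface staining, expressed as fold over baseline from uninhibited cells […].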

The test system of assay [2] is T-cell. Nature of the assay: CD25 cell surface staining on T-cells co-stimulated with anti-CD3 and anti-CD28 antibody (Biological Example 2). Format: cell-based, human. As to conditions: Homo sapiens, T-cell. In a few lines:
as §1

Assay [3] deals with T-cell. The assay is described as follows: CD25 cell surface staining on T-cells stimulated with anti-CD3 antibody alone (Biological Example 2). Format: cell-based, human. As to conditions: Homo sapiens, T-cell.
Assay [4] deals with T-cell. Nature of the assay: IL-2 secretion from T-cells stimulated with anti-CD3 antibody alone (Biological Example 2). Format: cell-based, human. As to conditions: Homo sapiens, T-cell.
The target of assay [5] is T1, Cbl-b (Homo sapiens, UniProt Q13191). The assay is described as follows: Cbl-b activity assay (Cbl-b inhibition assay), TR-FRET of Cbl-b interaction with UbcH5B-Ub. Format: biochemical. As to conditions: assay buffer with 100 mM NaCl, 60 nM Src kinase; read-out: Cbl-b activity IC50. In a few lines: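 TR-FRET readout of Cbl-b binding to Bodipy-fluorescein N-terminally labeled Ub conjugated to UbcH5B C85K, measured with compound present. After compound incubation, 60 nM Src kinase with 1 mM ATP and 5 mM MgCl2 (final) was added for 1.5 h, then a further 1 h incubation; asterisked values used 50 mM NaCl buffer and 30 nM Src.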
T1 sequence (Q13191 36-427): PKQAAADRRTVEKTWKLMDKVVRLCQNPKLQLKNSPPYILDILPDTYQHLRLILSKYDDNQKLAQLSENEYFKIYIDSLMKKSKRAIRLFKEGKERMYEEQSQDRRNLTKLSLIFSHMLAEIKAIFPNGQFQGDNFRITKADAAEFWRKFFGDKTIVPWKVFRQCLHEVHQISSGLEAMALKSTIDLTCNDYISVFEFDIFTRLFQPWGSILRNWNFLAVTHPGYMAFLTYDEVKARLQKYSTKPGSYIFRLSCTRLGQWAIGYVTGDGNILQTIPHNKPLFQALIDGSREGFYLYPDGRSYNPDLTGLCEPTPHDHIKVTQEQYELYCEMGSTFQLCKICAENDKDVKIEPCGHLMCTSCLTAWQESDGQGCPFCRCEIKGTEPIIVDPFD
In general terms: In TR-FRET formats the signal depends on donor and acceptor labels being close together.

The target in assay [6] is T1, Cbl-b. Nature of the assay: Cbl-b inhibition assay (Cbl-b activity assay, FRET, Biological Example 1; 100 mM NaCl, 60 nM Src kinase). Format: biochemical. To be noted: upper bound stated in text lists; read-out: IC50 values in the Cbl-b inhibition assay of Biological Example 1. An outline of the steps:
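Inhibition is read as loss of FRET signal. The signal arises when Src-phosphorylated, N-terminal biotinylated Avi-Cbl-b (captured by streptavidin-terbium) binds UbcH5B carrying covalently linked Bodipy-Fluorescein-tagged ubiquitin.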

Setting [7] is: read-out: IL-2 secretion, Anti-CD3/Anti-CD28 stimulation, fold change over baseline.
[8] abbreviates: read-out: CD25 staining, Anti-CD3/Anti-CD28 stimulation, fold change over baseline.
The mark [9] stands for this setting: 0.3 μM Cbl-b inhibitor, fold change over baseline (anti-CD3/anti-CD28 stimulated T-cells without inhibitor), read-out: IL-2 secretion Anti-CD3/Anti-CD28 stimulation.
Setting [10] is: 1 μM Cbl-b inhibitor, fold change over baseline (anti-CD3/anti-CD28 stimulated T-cells without inhibitor), read-out: IL-2 secretion Anti-CD3/Anti-CD28 stimulation.
Where [11] appears, read: 0.3 μM Cbl-b inhibitor, fold change over baseline (anti-CD3/anti-CD28 stimulated T-cells without inhibitor), read-out: CD25 staining Anti-CD3/Anti-CD28 stimulation.
[12] abbreviates: 1 μM Cbl-b inhibitor, fold change over baseline (anti-CD3/anti-CD28 stimulated T-cells without inhibitor), read-out: CD25 staining Anti-CD3/Anti-CD28 stimulation.
The mark [13] stands for this setting: 1 μM Cbl-b inhibitor, fold change over baseline (anti-CD3/anti-CD28 stimulated T-cells without inhibitor), read-out: CD25 staining Anti-CD3 stimulation.
[14] abbreviates: 1 μM Cbl-b inhibitor, fold change over baseline (anti-CD3/anti-CD28 stimulated T-cells without inhibitor), read-out: IL-2 secretion Anti-CD3 stimulation.

As to `Cn1cnnc1CC1(c2cccc(N3Cc4c(cc(CN5[C@@H]6CC[C@H]5C[C@@H](F)C6)cc4C(F)(F)F)C3=O)c2)COC1` [Example 557, 6-(((1R,3r,5S)-3-fluoro-8-azabicyclo[3.2.1]octan-8-yl)methyl)-2-(3-(3-((4-methyl-4H-1,2,4-triazol-3-yl)methyl)oxetan-3-yl)phenyl)-4-(trifluoromethyl)isoindolin-1-one], the fold induction at 0.3 µM in assay [1] (setting [7]) is 5 to 7.5; in assay [2] (setting [8]), over 1.76. The fold induction at 1 µM in assay [1] (setting [7]) is over 7.5; in assay [2] (setting [8]), over 1.76; in assay [3] (read-out: CD25 staining, Anti-CD3 stimulation, fold change over baseline) it was over 1; in assay [4] (read-out: IL-2 secretion, Anti-CD3 stimulation, fold change over baseline), over 0.201. Further, the figures for the IC50 in assay [5] and in assay [6] were under 100 nM and at most 100 nM, respectively.

Regarding `Cn1cnnc1CC1(c2cccc(N3Cc4c(cc(C5=CN6CCC5CC6)cc4C(F)(F)F)C3=O)c2)COC1` [Example 559, 6-(l-azabicyclo[2.2.2]oct-2-en-3-yl)-2-(3-(3-((4-methyl-4H-1,2,4-triazol-3-yl)methyl)oxetan-3-yl)phenyl)-4-(trifluoromethyl)isoindolin-1-one], the fold induction at 0.3 µM fell in the range of 1.01 to 2.5 in assay [1] (setting [9]) and 1.01 to 1.3 in assay [2] (setting [11]). The fold induction at 1 µM in assay [1] (setting [10]) was 2.51 to 5; in assay [2] (setting [12]), 1.01 to 1.3; in assay [3] (setting [13]), 0.601 to 0.8; in assay [4] (setting [14]), under 0.05. For the same compound, the IC50 was 100 to 300 nM in assay [5] and at most 300 nM in assay [6].

`Cn1cnnc1CC1(c2cccc(N3Cc4c(cc(C5CN6CCC5CC6)cc4C(F)(F)F)C3=O)c2)COC1` (stereo not shown) [Example 560, 2-(3-(3-((4-methyl-4H-1,2,4-triazol-3-yl)methyl)oxetan-3-yl)phenyl)-6-(quinuclidin-3-yl)-4-(trifluoromethyl)isoindolin-1-one]: the fold induction at 0.3 µM in assay [1] (setting [9]) was in the range of 2.51 to 5; in assay [2] (setting [11]), 1.01 to 1.3. In addition, the fold induction at 1 µM is 5 to 7.5 in assay [1] (setting [10]), 1.01 to 1.3 in assay [2] (setting [12]), 0.601 to 0.8 in assay [3] (setting [13]) and under 0.05 in assay [4] (setting [14]). The IC50 was under 100 nM in assay [5] and at most 100 nM in assay [6].

Turning to `Cn1cnnc1CC1(c2cccc(N3Cc4c(cc(N5CCOC5=O)cc4C(F)(F)F)C3=O)c2)COC1` [Example 561, 3-(2-(3-(3-((4-Methyl-4H-1,2,4-triazol-3-yl)methyl)oxetan-3-yl)phenyl)-3-oxo-7-(trifluoromethyl)isoindolin-5-yl)oxazolidin-2-one], the values for the fold induction at 0.3 µM in assay [1] (setting [9]) and in assay [2] (setting [11]) were 1.01 to 2.5 and 1.01 to 1.3, respectively. Further, the fold induction at 1 µM was 2.51 to 5 in assay [1] (setting [10]), 1.01 to 1.3 in assay [2] (setting [12]), 0.601 to 0.8 in assay [3] (setting [13]) and under 0.05 in assay [4] (setting [14]). Moreover, the IC50 in assay [5] was under 100 nM; in assay [6], at most 100 nM.

For `CN1C[C@H]2C[C@@H]1CN2c1cc2c(c(C(F)(F)F)c1)CN(c1cccc([C@@](C)(F)C(F)(F)c3nncn3C)c1)C2=O` [Example 562, 6-((1R,4R)-5-Methyl-2,5-diazabicyclo[2.2.1]heptan-2-yl)-2-(3-((R)-1,1,2-trifluoro-1-(4-methyl-4H-1,2,4-triazol-3-yl)propan-2-yl)phenyl)-4-(trifluoromethyl)-isoindolin-1-one], the results for the fold induction at 0.3 µM in assay [1] (setting [9]) and in assay [2] (setting [11]) were 5 to 7.5 and 1.51 to 1.75, respectively. Further, the fold induction at 1 µM in assay [1] (setting [10]) is over 7.5; in assay [2] (setting [12]) it was 1.51 to 1.75; in assay [3] (setting [13]), over 1; in assay [4] (setting [14]), over 0.201. Besides, the IC50 in assay [5] was under 100 nM; in assay [6] it was at most 100 nM.

In the case of `CN1C[C@@H]2C[C@H]1CN2c1cc2c(c(C(F)(F)F)c1)CN(c1cccc([C@@](C)(F)C(F)(F)c3nncn3C)c1)C2=O` [Example 563, 6-((1S,4S)-5-Methyl-2,5-diazabicyclo[2.2.1]heptan-2-yl)-2-(3-((R)-1,1,2-trifluoro-1-(4-methyl-4H-1,2,4-triazol-3-yl)propan-2-yl)phenyl)-4-(trifluoromethyl)-isoindolin-1-one], the fold induction at 0.3 µM lay in the range of 1.01 to 2.5 in assay [1] (setting [9]) and 1.01 to 1.3 in assay [2] (setting [11]). Moreover, the fold induction at 1 µM in assay [1] (setting [10]) is 2.51 to 5; in assay [2] (setting [12]), 1.31 to 1.5; in assay [3] (setting [13]) it was 0.801 to 1; in assay [4] (setting [14]), 0.051 to 0.1. The IC50 in assay [5] was under 100 nM; in assay [6], at most 100 nM.

With `CN1C2CCC1CN(c1cc3c(c(C(F)(F)F)c1)CN(c1cccc([C@@](C)(F)C(F)(F)c4nncn4C)c1)C3=O)C2` [Example 564, 6-(8-Methyl-3,8-diazabicyclo[3.2.1]octan-3-yl)-2-(3-((R)-1,1,2-trifluoro-1-(4-methyl-4H-1,2,4-triazol-3-yl)propan-2-yl)phenyl)-4-(trifluoromethyl)isoindolin-1-one], the values for the fold induction at 0.3 µM in assay [1] (setting [9]) and in assay [2] (setting [11]) were 1.01 to 2.5 and 1.01 to 1.3, respectively. The fold induction at 1 µM in assay [1] (setting [10]) fell in the range of 2.51 to 5; in assay [2] (setting [12]), 1.31 to 1.5; in assay [3] (setting [13]) it was 0.801 to 1; in assay [4] (setting [14]) it was 0.101 to 0.15. The values for the IC50 in assay [5] and in assay [6] were under 100 nM and at most 100 nM, respectively.

Consider `CN1CC2CCC1CN2c1cc2c(c(C(F)(F)F)c1)CN(c1cccc([C@@](C)(F)C(F)(F)c3nncn3C)c1)C2=O` (stereo partly drawn) [Example 565, 6-(5-Methyl-2,5-diazabicyclo[2.2.2]octan-2-yl)-2-(3-((R)-1,1,2-trifluoro-1-(4-methyl-4H-1,2,4-triazol-3-yl)propan-2-yl)phenyl)-4-(trifluoromethyl)isoindolin-1-one], for which the fold induction at 0.3 µM fell in the range of 1.01 to 2.5 in assay [1] (setting [9]) and 1.31 to 1.5 in assay [2] (setting [11]). In addition, the fold induction at 1 µM was 2.51 to 5 in assay [1] (setting [10]), 1.31 to 1.5 in assay [2] (setting [12]), over 1 in assay [3] (setting [13]) and 0.101 to 0.15 in assay [4] (setting [14]). Besides, the IC50 in assay [5] was under 100 nM; in assay [6], at most 100 nM.

Take `CN1CC2CC(C1)N2c1cc2c(c(C(F)(F)F)c1)CN(c1cccc([C@@](C)(F)C(F)(F)c3nncn3C)c1)C2=O` [Example 566, 6-(3-Methyl-3,6-diazabicyclo[3.1.1]heptan-6-yl)-2-(3-((R)-1,1,2-trifluoro-1-(4-methyl-4H-1,2,4-triazol-3-yl)propan-2-yl)phenyl)-4-(trifluoromethyl)isoindolin-1-one]: the fold induction at 0.3 µM in assay [1] (setting [9]) is 5 to 7.5; in assay [2] (setting [11]) it was 1.31 to 1.5. In addition, the fold induction at 1 µM was over 7.5 in assay [1] (setting [10]), 1.51 to 1.75 in assay [2] (setting [12]), over 1 in assay [3] (setting [13]) and 0.101 to 0.15 in assay [4] (setting [14]). Further, the results for the IC50 in assay [5] and in assay [6] were under 100 nM and at most 100 nM, respectively.

Take `Cn1cnnc1CC1(c2cccc(N3Cc4c(cc(N5CCOCC5)cc4C(F)(F)F)C3=O)c2)COC1` [Example 567, 2-(3-(3-((4-Methyl-4H-1,2,4-triazol-3-yl)methyl)oxetan-3-yl)phenyl)-6-morpholino-4-(trifluoromethyl)isoindolin-1-one]: the values for the fold induction at 0.3 µM in assay [1] (setting [9]) and in assay [2] (setting [11]) were 1.01 to 2.5 and 1.01 to 1.3, respectively. Further, the fold induction at 1 µM lay in the range of 2.51 to 5 in assay [1] (setting [10]), 1.01 to 1.3 in assay [2] (setting [12]), 0.801 to 1 in assay [3] (setting [13]) and 0.051 to 0.1 in assay [4] (setting [14]). For the same compound, the IC50 was under 100 nM in assay [5] and at most 100 nM in assay [6].

On to `Cn1cnnc1CC1(c2cccc(N3Cc4c(cc(C5CC5)nc4C4CC4)C3=O)c2)COC1` [Example 568, 4,6-Dicyclopropyl-2-(3-(3-((4-methyl-4H-1,2,4-triazol-3-yl)methyl)oxetan-3-yl)phenyl)-2,3-dihydro-1H-pyrrolo[3,4-c]pyridin-1-one], for which the fold induction at 0.3 µM is 1.01 to 2.5 in assay [1] (setting [9]) and 1.01 to 1.3 in assay [2] (setting [11]). Further, the fold induction at 1 µM in assay [1] (setting [10]) was in the range of 1.01 to 2.5; in assay [2] (setting [12]) it was 1.01 to 1.3; in assay [3] (setting [13]), 0.801 to 1; in assay [4] (setting [14]), 0.101 to 0.15. Also, the figures for the IC50 in assay [5] and in assay [6] were under 100 nM and at most 100 nM, respectively.

What is called IC50 is the point on the concentration scale where inhibition reaches its midpoint.
